Reference: patent US4082751A, “Therapeutic agents” (priority 1976, dated 1978)
Where two headings read alike, the source gives them in different places.

Tests used:
[1] = system: reagin-mediated Passive Cutaneous Anaphylaxis (PCA) response; assay: Reagin-mediated rat Passive Cutaneous Anaphylaxis (PCA) screening test; format: in vivo, rat (Sprague-Dawley)
Description: The reagin-mediated rat Passive Cutaneous Anaphylaxis (PCA) screening test used to evaluate the present compounds is generally regarded as one of the best animal models for use in predicting the antiallergy activity of test compounds in man. Briefly, the method consists of passive sensitization of skin sites on the test animals with reaginic antibodies followed after 24 hours by administration of the test drug and antigen challenge. The allergic response is measured by use of Evans'blue dye and is evaluated by the spot diameter at the injection site. Details of the test are provided below.
Ovalbumin (5 times crystalline) Dinitrobenzene sulfonic acid, Na^+ salt Bordetella pertussis vaccine - phase I 10-20 × 10 ^9 killed organisms/ml. Aluminum hydroxide gel - 10 mg./ml. Potassium carbonate Male Sprague-Dawley (S/D) Rats - 200 gms. Female Sprague-Dawley Rats - 100 gms. Tris Buffered Saline (TBS) - 0.02 M 2-amino-2-hydroxymethyl-1,3-propanediol (Tris), 0.15 M NaCL, pH 8.2
A substituted ovalbumin antigen is used both as immunogen and challenging antigen. The antigen is prepared as follows: 500 mg. ovalbumin (EA) and 500 mg. K2 CO3 are dissolved in 25 ml. distilled H2 O and stirred at room temperature for 5 minutes. Five hundred (500)mg. dinitrobenzene sulfonic acid, Na^+ salt, (previously recrystallized from hot absolute ethanol) is then added slowly with continued stirring. The reaction mixture is then immediately placed in the dark and allowed to proceed for 2 hours with constant stirring. After 2 hours the mixture is placed in suitable dialysis tubing and dialyzed against 5 changes (4 liters each) of distilled H2 O at 5° C. After dialysis the product is lyophilized and stored at room temperature in a brown or amber container. The antigen obtained will appear as a light yellow, amorphous solid which is very soluble in water or saline. It is designated as DNP denatured ovalbumin (DNP-d EA).
Adult, male Sprague-Dawley rats are used as a source of reagin-rich antisera for the PCA model. Immunization is by a combinatin of DNP-d EA on Al(OH) 3 gel and B. pertussis vaccine. Preparation of the DNP-d EA - gel immunogen is as follows: Dissolve the DNP-d EA in TBS so as to give a concentration of 10 mg./ml. Slowly add 1 ml. of this solution to 10 ml. Al(OH) 3 gel (10 mg. solids/ml.) with constant stirring at room temperature. Stir the mixture an additional 30 minutes to insure a uniform adsorption of antigen on gel.
The resulting preparation is then used in combination with phase I B. pertussis vaccine to immunize male S/D rats as follows: For each rat administer 0.1 ml. DNP-d EA - gel suspension intramuscularly in each hind leg (200 μg DNP-d EA and 2 mg. gel total dose). Follow these injections by the intraperitoneal administration of 1.0 ml. B. pertussis vaccine (10-20 × 10 ^9 organisms). The use of light ether anesthesia during this procedure is recommended to insure proper intramuscular and intraperitoneal injections. 9 days following immunization (but no longer than 10) the animals are exsanguinated by cardiac puncture or abdominal aorta cannulation under ether or pentobarbital anesthesia. The collected whole blood is allowed to clot, the serum separated by centrifugation and the individual serum samples stored frozen until assayed for IgE content.
Individual serum samples should be screened for reaginic antibody concentration before being pooled with other sera, as not all rats respond to immunization procedures with reagin production. At 1:50 saline dilution of serum from each immunized rat is used for this purpose. Intradermal injections of 0.05 ml. of the diluted sera are made in the shaven backs of two small female recipient rats, 100-120 gms. Several serum samples can be tested simultaneously in recipient animals. After a 24 to 48 hour latent period antigen challenge is accomplished by intravenous administration to each rat of 1 mg. DNP-d EA in 0.5 ml. 0.5% Evans' blue dye in saline. […]

[2] = cited from earlier work
[3] = water solubility of salts; format: physicochemical; conditions: salts of 2-(2-n-propoxyphenyl)-5-(5-1H-tetrazolyl)-pyrimidin-4(3H)-one
[4] = system: release of mediators, e.g. histamine and SRS-A; conditions: administered to asthmatic patients prior to inhalation of specific antigens; cited from earlier work
[5] = must be administered by inhalation; cited from earlier work
[6] = po, 10 min before antigen challenge, read-out: ID50, the dose of compound that inhibits 50% of the response, p.o.
[7] = bronchodilators, bronchial asthma
[8] = iv, test compounds 1-5 min before antigen challenge, DSCG at time of challenge, read-out: ID50, the dose of compound that inhibits 50% of the response, iv.

SMILES	ED50 [1, 6]	other results
CCC(C)Oc1ccccc1-c1ncc(-c2nnn[nH]2)c(=O)[nH]1 (racemic) [Example 5, (±)-2-(2-sec-Butoxyphenyl)-5-(5-1H-tetrazolyl)pyrimidin-4(3H)-one]	0.05 mg/kg	–
CC(C)Oc1ccccc1-c1ncc(-c2nnn[nH]2)c(=O)[nH]1 [Example 3, 2-(2-Isopropoxyphenyl)-5-(5-1H-tetrazolyl)pyrimidin-4(3H)-one]	~0.04 mg/kg	–
C=CCOc1ccccc1-c1ncc(-c2nnn[nH]2)c(=O)[nH]1 [Example 8, 2-(2-Allyloxyphenyl)-5-(5-1H-tetrazolyl)pyrimidin-4(3H)-one]	0.24 mg/kg	–
CN1[C@@H]2CC[C@H]1C[C@@H](OC(=O)C(CO)c1ccccc1)C2 (stereo partly drawn) [atropine]	–	undesirable side effects [2, 7]: cardiac stimulation and gastrointestinal distress
CCCOc1ccccc1-c1ncc(-c2nnn[nH]2)c(=O)[nH]1 [diethanolamine, 2-(2-n-propoxyphenyl)-5-(5-1H-tetrazolyl)-pyrimidin-4(3H)-one]	–	water solubility [3]: water soluble
CCOc1ccccc1-c1ncc(-c2nnn[nH]2)c(=O)[nH]1 [Example 1, 2-(2-Ethoxyphenyl)-5-(5-1H-tetrazolyl)pyrimidin-4-(3H)-one]	0.09 mg/kg	ED50 [1, 8]: 0.02 mg/kg
CCCOc1ccc(N(C)C)cc1-c1ncc(-c2nnn[nH]2)c(=O)[nH]1 [Example 16, 2-(5-Dimethylamino-2-n-propoxyphenyl)-5-(5-1H-tetrazolyl)pyrimidin-4(3H)-on]	~0.4 mg/kg	–
CNC[C@H](O)c1ccc(O)c(O)c1 [epinephrine]	–	undesirable side effects [2, 7]: cardiac stimulation and gastrointestinal distress
CCCOc1ccccc1-c1ncc(-c2nnn[nH]2)c(=O)[nH]1 [Example 2, 2-(2-n-Propoxyphenyl)-5-(5-1H-tetrazolyl)pyrimidin-4(3H)-one]	0.04 mg/kg	–
CC(C)NCC(O)c1ccc(O)c(O)c1 (stereo not drawn) [isoproterenol]	–	undesirable side effects [2, 7]: cardiac stimulation and gastrointestinal distress
CCCOc1ccc(N)cc1-c1ncc(-c2nnn[nH]2)c(=O)[nH]1 [Example 15, 2-(5-Amino-2-n-propoxyphenyl)-5-(5-1H-tetrazolyl)pyrimidin-4(3H)-one]	~0.1 mg/kg	–
Cn1c(=O)c2[nH]cnc2n(C)c1=O [theophylline]	–	undesirable side effects ([2]; in vivo): cardiac stimulation and gastrointestinal distress
CC(C)COc1ccccc1-c1ncc(-c2nnn[nH]2)c(=O)[nH]1 [Example 7, 2-(2-Isobutoxyphenyl)-5-(5-1H-tetrazolyl)pyrimidin-4(3H)-one]	~0.1 mg/kg	–
COc1ccccc1-c1ncc(-c2nnn[nH]2)c(=O)[nH]1 [Example 6, 2-(2-Methoxyphenyl)-5-(5-1H-tetrazolyl)pyrimidin-4(3H)-one]	~0.1 mg/kg	–
CCCOc1ccc(OC)cc1-c1ncc(-c2nnn[nH]2)c(=O)[nH]1 [Example 10, 2-(5-Methoxy-2-n-propoxyphenyl)-5-(5-1H-tetrazolyl)pyrimidin-4(3H)-one]	0.03 mg/kg	–
CCCOc1ccc([N+](=O)[O-])cc1-c1ncc(-c2nnn[nH]2)c(=O)[nH]1 [Example 14, 2-(5-Nitro-2-n-propoxyphenyl)-5-(5-1H tetrazolyl)pyrimidin-4(3H)-one]	5 mg/kg	–
O=c1[nH]c(-c2ccccc2OCC2CC2)ncc1-c1nnn[nH]1 [Example 9, 2-(2-Cyclopropylmethoxyphenyl)-5-(5-1H-tetrazolyl)pyrimidin-4(3H)-one]	0.07 mg/kg	–
O=C(O)c1cc(=O)c2c(OCC(O)COc3cccc4oc(C(=O)O)cc(=O)c34)cccc2o1 [DSCG, disodium cromoglycate]	> 30 mg/kg	cardiovascular side effects ([2]; in vivo): without cardiovascular side effects; inhibition of release of mediators [4]: inhibits the release of mediators; oral absorption [5]: not orally absorbed; ED50 [1, 8]: 0.3 mg/kg
CCCCOc1ccccc1-c1ncc(-c2nnn[nH]2)c(=O)[nH]1 [Example 4, 2-(2-n-Butoxyphenyl)-5-(5-1H-tetrazolyl)pyrimidin-4(3H)-one]	~0.07 mg/kg	–
